How the values were obtained:
[1] = Blood pool clearance from SUVmean of the heart; type: in vivo
Description: The calculated plateau values, which were higher for Ga-68 labeled FAPI-13, -21, -36 and AlF-18 labeled FAPI-74 theoretically correspond to a higher fraction of compound which is not cleared due to unspecific binding or by remaining in circulating (Table 12).

[2] = Preliminary dosimetry estimate in patients; type: in vivo, human
[3] = test system: tumor lesions and normal tissue of cancer patients; test: Clinical PET/CT imaging in cancer patients (SUV); type: in vivo, human
Experimental: Diagnostic imaging of more than 100 patients was performed under the conditions of the updated declaration of Helsinki, § 37 (Unproven interventions in clinical practice) and in accordance to the German Pharmaceuticals Law § 13 (2b) for medical reasons using either ^68Ga-FAPI-02 or -04, which was applied intravenously (20 nmol, 122-336 MBq), 10 min, 1 and 3 hours post tracer administration. Variation of injected radiotracer activity is due to the short half-life of ^68Ga and the variable elution efficiencies obtained during the lifetime of the ^68Ge/^68Ga generator. […] The PET/CT scans were performed with a Biograph mCT Flow™ PET/CT-Scanner (Siemens Medical Solution) using the following parameters: slice thickness of 5 mm, increment of 3-4 mm, soft-tissue reconstruction kernel, care dose. Immediately after CT scanning, a whole-body PET was acquired in 3D (matrix 200×200) in FlowMotion™ with 0.7 cm/min. The emission data were corrected for random, scatter and decay. Reconstruction was conducted with an ordered subset expectation maximisation (OSEM) algorithm with 2 iterations/21 subsets and Gauss-filtered to a transaxial resolution of 5 mm at full-width half-maximum (FWHM). Attenuation correction was performed using the low-dose non-enhanced CT data. The quantitative assessment of standardized uptake values (SUV) was done using a region of interest technique.
For the normal tissue of 16 organs, a 2 cm Spheric-VOI was placed in the parenchyma, for tumor lesions a threshold segmented VOI was used to quantify SUVmean/max^3.

[4] = target: recombinant human FAP protein (Homo sapiens (Human), UniProt Q12884); test: Enzyme inhibition assay with fluorogenic substrate Z-GP-AMC; type: biochemical; conditions: 0-1000 nM/well, 30 min at 37° C.
HT-1080-FAP cells = test: Efflux experiments in HT-1080-FAP cells; type: cell-based, human; conditions: after 24 h in compound-free medium
Experimental: Radioligand binding studies were performed using HT-1080-FAP cells. The radiolabeled compound was added to the cell culture and incubated for different time intervals ranging from 10 min to 24 h. Competition experiments were performed by simultaneous exposure to unlabeled (10^−5 M to 10^−9M) and radiolabeled compound for 60 min. For efflux experiments, radioactive medium was removed after incubation for 60 min and replaced by non-radioactive medium for time intervals ranging from 1 to 24 h. For internalization experiments, surface bound activity was removed by incubating the cells with 1 M glycine-HCl buffer for 10 min. The radioactivity was measured using a γ-counter, normalized to 1 mio cells and calculated as percentage of applied dose (% ID).
For radioligand binding studies, cells were seeded in 6-well plates and cultivated for 48 h to a final confluence of approx. 80-90% (1.2-2 mio cells/well). The medium was replaced by 1 mL fresh medium without fetal calf serum. The radiolabeled compound was added to the cell culture and incubated for different time intervals ranging from 10 min to 24 h. Competition experiments were performed by simultaneous exposure to unlabeled (10^−5 M to 10^−9 M) and radiolabeled compound for 60 min. For efflux experiments, radioactive medium was removed after incubation for 60 min and replaced by non-radioactive medium for time intervals ranging from 1 to 24 h. In all experiments, the cells were washed with 1 mL phosphate-buffered saline pH 7.4 for 2 times and subsequently lysed with 1.4 ml lysis buffer (0.3 M NaOH, 0.2% SDS). Radioactivity was determined in a γ-counter (Cobra II, Packard), normalized to 1 mio cells and calculated as percentage of the applied dose (% ID). Each experiment was performed 3 times, and 3 repetitions per independent experiment were acquired.

[5] = test system: HT-1080-FAP tumor xenografts; test: Organ distribution ex vivo in HT-1080-FAP tumor bearing nude mice; design: species or system mouse
Experimental: For in vivo experiments, 8 week old BALB/c nu/nu mice (Charles River) were subcutaneously inoculated into the right trunk with 5×10^6 with HT-1080-FAP, Capan-2 or SK-LMS-1 cells, respectively. When the size of the tumor reached approximately 1 cm^3, the radiolabeled compound was injected via the tail vein (˜10 MBq for small-animal PET imaging; ˜1 MBq for organ distribution). PET imaging was performed up to 140 min after intravenous injection of 1 MBq of Ga-68 labeled compound per mouse using the Inveon PET small-animal PET scanner (Siemens). Images were reconstructed iteratively using the 3D-OSEM+MAP method and were converted to standardized uptake value (SUV) images. Quantification was done using a ROI technique and expressed as SUV mean. For organ distribution of Lu-177 labeled compound (approx. […] per mouse), the animals (n=3 for each time point) were sacrificed after indicated time points (from 30 min to 24 h). The distributed radioactivity was measured in all dissected organs and in blood using a γ-counter (Cobra Autogamma, Packard). The values are expressed as percentage of injected dose per gram of tissue (% ID/g).

[6] = Lu-177 labeled, 1 h after i.v., HT-1080-FAP, mean ± SD, n = 3

recombinant human FAP protein, sequence (Q12884 whole entry): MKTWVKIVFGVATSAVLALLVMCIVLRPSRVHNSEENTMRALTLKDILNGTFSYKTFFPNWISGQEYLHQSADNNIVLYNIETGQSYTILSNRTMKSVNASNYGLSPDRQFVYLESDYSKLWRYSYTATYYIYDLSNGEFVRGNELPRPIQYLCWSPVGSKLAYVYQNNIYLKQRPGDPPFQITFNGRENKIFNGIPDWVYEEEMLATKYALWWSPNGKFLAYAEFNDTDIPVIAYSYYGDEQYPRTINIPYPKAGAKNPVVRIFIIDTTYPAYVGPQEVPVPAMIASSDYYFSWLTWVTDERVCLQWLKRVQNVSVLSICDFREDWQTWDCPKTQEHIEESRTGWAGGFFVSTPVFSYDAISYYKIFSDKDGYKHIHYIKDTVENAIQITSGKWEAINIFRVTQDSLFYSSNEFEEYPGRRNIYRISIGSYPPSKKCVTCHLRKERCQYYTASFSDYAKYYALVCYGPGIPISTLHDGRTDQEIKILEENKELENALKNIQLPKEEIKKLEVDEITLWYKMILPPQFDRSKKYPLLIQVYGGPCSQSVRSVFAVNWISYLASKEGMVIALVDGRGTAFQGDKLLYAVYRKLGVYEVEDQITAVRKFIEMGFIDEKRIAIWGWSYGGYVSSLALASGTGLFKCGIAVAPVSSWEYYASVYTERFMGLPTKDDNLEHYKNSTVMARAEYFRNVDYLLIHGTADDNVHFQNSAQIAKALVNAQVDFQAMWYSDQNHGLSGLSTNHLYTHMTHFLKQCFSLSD

Plateau value (SUVmean) ([1]; hypothetical plateau, two phase exponential decay of heart SUVmean): 0.21
equivalent dose of an exam ([2]; 200 MBq Ga-68): 3-4 mSv
effective dose ([2]; calculated with IDAC1/ICRP60): 1.66E-02 mSv/MBq
effective dose ([2]; calculated with IDAC2/ICRP103): 1.35E-02 mSv/MBq
effective dose ([2]; calculated with OLINDA): 1.64E-02 mSv/MBq
background activity (SUV) ([3]; 68Ga labeled, 1 h p.i.): 2
decrease of tumor uptake (washout) ([3]; from 1 h to 3 h p.i., patients): 50%
inhibition of enzymatic FAP activity [4]: robust, dose-dependent FAP inhibition
highest enrichment within the FAP-expressing tumor ([5]; 177Lu labeled, after 2 h): 5.4 % ID/g
Tumor uptake 1 h ([5]; HT-1080-FAP tumor bearing nude mice, 1 h, mean ± SD, n = 3): 4.9 ± 0.82 % ID/g
Tumor uptake 4 h ([5]; HT-1080-FAP tumor bearing nude mice, 4 h, mean ± SD, n = 3): 5.4 ± 1.51 % ID/g
Tumor uptake 24 h ([5]; HT-1080-FAP tumor bearing nude mice, 24 h, mean ± SD, n = 3): 3.0 ± 0.23 % ID/g
Blood uptake [5, 6]: 1.70 ± 0.206 % ID/g
Brain uptake [5, 6]: 0.08 ± 0.010 % ID/g
Heart uptake [5, 6]: 0.80 ± 0.089 % ID/g
Intestines uptake [5, 6]: 0.66 ± 0.196 % ID/g
Kidneys uptake [5, 6]: 2.28 ± 0.477 % ID/g
Liver uptake [5, 6]: 0.73 ± 0.118 % ID/g
Lungs uptake [5, 6]: 1.50 ± 0.151 % ID/g
Muscle uptake [5, 6]: 0.92 ± 0.020 % ID/g
Spleen uptake [5, 6]: 0.48 ± 0.072 % ID/g
Tumor uptake [5, 6]: 4.89 ± 0.817 % ID/g
SMILES: N#C[C@@H]1CC(F)(F)CN1C(=O)CNC(=O)c1ccnc2ccc(OCCCN3CCN(C(=O)CN4CCN(CC(=O)O)CCN(CC(=O)O)CCN(CC(=O)O)CC4)CC3)cc12 [FAPI-04]
Blood pool-clearence (T1/2 [min]) ([1]; rate determining half-life, two phase exponential decay of heart SUVmean 0.375-60 min): 7.1 min
maximum SUV values in primary tumor, lymph node and bone metastases ([3]; 68Ga labeled, 1 h after i.v. administration, patients): ≤ 48.0
average SUVmax, lowest uptake group ([3]; 68Ga labeled, 1 h p.i., renal cell, differentiated thyroid, adenoid-cystic, gastric carcinoma, pheochromocytoma): < 6
average SUVmax, highest uptake group ([3]; 68Ga labeled, 1 h p.i., sarcoma, esophageal, breast, cholangiocellular carcinoma, lung cancer): > 12
retention of the originally accumulated radioactivity (efflux) (HT-1080-FAP cells): 49%

Source: patent US20250127937A1, “FAP INHIBITOR” (UNIVERSITÄT HEIDELBERG, priority 2018, published 2025)
